# Columns and labels:
# MDA-MB-231 cell line = test: T-cell-mediated cytotoxicity assay (bioluminescence), MDA-MB-231; format: cell-based, human; details: CLDN6-negative MDA-MB-231; RiboMab02.1-containing mouse serum
# Procedure: Human PBMCs from eight healthy donors were co-cultured with luciferase-expressing tumor cells. CLDN6-positive PA-1 (A) or OV-90 (B) cell lines were used as target cells and the CLDN6-negative MDA-MB-231 (A, B) cell line to control for target specificity. The assays were performed in a 384-well plate format with an effector-to-target-cell ratio of 20:1. Bioluminescence of viable tumor cells was measured as readout. Specific lysis percentages of tumor cell killing are presented. RiboMab02.1-containing mouse serum was serially-diluted (10-fold, 10-point; range: 5.0×10^−7 to 500 ng/mL) and added to the co-cultures, followed by incubation for (A) 24 h with PA-1 cells or (B) 48 h with OV-90 cells. Each line represents tumor cell lysis with an individual donor's PBMC sample.
# Bioluminescence-based cytotoxicity assays were conducted using luciferase-expressing cell lines.
# The CLDN6-positive human ovarian cancer cell lines PA-1 and OV-90 served to determine target-dependent lysis efficiency while the target-negative human breast cancer cell line MDA-MB-231 was used as negative control to confirm target-specific lysis. Human PBMCs from eight different healthy donors were used as effector cells to reflect the donor-dependent heterogeneity of human T-cell responses. […]
# human PBMCs (T cells) = test: T-cell activation assay (CD69/CD25, flow cytometry); format: cell-based
# Procedure: Human PBMCs from three healthy donors (effector cells) were cultured in the presence and absence of CLDN6-positive PA-1 cells (target cells) at a 10:1 effector-to-target-cell ratio. RiboMab02.1-containing mouse serum was serially-diluted (10-fold, 10-point; range: 4.0×10^−6 to 4,000 ng/mL) prior to use in the assay. After 48 h of co-incubation, cells were stained with anti-CD5, anti-CD69 and anti-CD25 antibodies for flow cytometric analysis of T cells. Shown here is the total T-cell activation normalized to samples incubated with mock serum from Luc_RNA-LNP-treated mice. Percentages of activated T cells are shown for each individual donor (left) and for all three donors as mean (right). Filled symbols represent values with and black, open symbols without target cells.
# RiboMab02.1-containing as well as mock serum samples were obtained from mice administered either with BNT142 or luciferase encoding RNA-LNP (Luc_RNA-LNP; mock). Human PBMCs from three healthy donors were used as effector cells. Serum samples were serially-diluted (10-fold, 10-point), starting at 4,000 ng/mL, and added to PBMCs cultured alone or together with CLDN6-positive PA-1 target cells at an effector-to-target-cell ratio of 10:1. After 48 h of incubation, T cells were analyzed by flow cytometry for surface expression of the early and late activation markers CD69 and CD25, respectively. […] OKT3 positive control led to >50% T-cell activation with and without target cells (data not shown). Upregulation of CD69 on T cells was higher than that of CD25; CD25-positive cells were almost exclusively CD69 double-positive, pointing to an early activation state (data not shown).
# human CD3 = target: T1, human CD3 (Homo sapiens, UniProt P07766); test: Flow cytometric binding assay, human PBMCs; details: 10 μg/mL
# T1 construct: endogenous in cells; host or cells: human PBMCs (T cells)
# Description: Cells were first gated for singlets followed by gating for viable lymphocytes (PBMCs) or viable HEK-293T-17 cells. […] Cynomolgus monkey or human PBMCs and HEK-293T-17 transductants stably expressing luciferase (HEK-293T-17_mock), CLDN3, 4, 6 or 9 served as target cells as indicated. The dotted vertical line marks the peak position of unstained populations.
# [1] = Anti-drug antibody (ADA) sandwich immunoassay in mouse serum; format: in vivo, Balb/cJRj mice; details: 30 μg RNA-LNP IV single dose; compared to RiboMab_712/711
# Procedure: Four female Balb/cJRj mice received an IV single dose of 30 μg RNA-LNP per mouse (˜1.4 mg/kg). Serum was sampled pre- and 6, 24, 48, 96, 168, 216, 265 and 528 hours (0.25 to 22 days) post-administration.
# Anti-RiboMab02.1 and anti-RiboMab_712/711 drug antibodies (ADAs) in mouse sera were determined using a Gyros xPand™ XPA1025 ELISA device from Gyros Protein Technologies AB. Sandwich immunoassay was processed on a Gyrolab Bioaffy 200 CD.
# Anti-RiboMab ADAs were captured using 100 μg/mL biotinylated drug antibody. Serum ADA levels were detected with 25 nM Alexa Fluor 647-conjugated AffiniPure goat anti-mouse IgG, Fc fragment specific antibody. Data were generated using the 200-3W-002-A method and the results were analyzed using Gyrolab Evaluator software.
# The positive ADA response was determined according to the floating cut-point. Therefore, the cut-point was calculated using the response of the negative sera (pre-bleeds) and the formula, normalization factor (NF)+mean negative controls (NC).
# NF=X*SD of the negative samples; X=1.645; SD=standard deviation of the negative sera (pre-bleeds); NC=3 negative controls (pooled negative sera).
# T1 sequence (P07766 23-207): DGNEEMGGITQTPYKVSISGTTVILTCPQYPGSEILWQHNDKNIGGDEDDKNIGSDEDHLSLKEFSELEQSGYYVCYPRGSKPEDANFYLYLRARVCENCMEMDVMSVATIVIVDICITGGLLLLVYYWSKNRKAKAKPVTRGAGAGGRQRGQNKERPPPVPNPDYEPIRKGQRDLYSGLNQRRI
# T1 sequence (P04234 22-171 partner): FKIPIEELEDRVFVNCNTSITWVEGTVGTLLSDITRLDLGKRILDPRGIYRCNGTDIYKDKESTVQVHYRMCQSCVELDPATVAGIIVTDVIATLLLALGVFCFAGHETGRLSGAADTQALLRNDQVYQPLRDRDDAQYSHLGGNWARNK
# T1 sequence (P09693 23-182 partner): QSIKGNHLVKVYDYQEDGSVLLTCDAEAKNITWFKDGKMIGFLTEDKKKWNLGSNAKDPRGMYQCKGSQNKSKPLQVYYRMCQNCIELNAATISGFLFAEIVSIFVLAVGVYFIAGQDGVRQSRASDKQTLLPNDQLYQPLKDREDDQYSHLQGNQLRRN
# T1 sequence (P20963 22-164 partner): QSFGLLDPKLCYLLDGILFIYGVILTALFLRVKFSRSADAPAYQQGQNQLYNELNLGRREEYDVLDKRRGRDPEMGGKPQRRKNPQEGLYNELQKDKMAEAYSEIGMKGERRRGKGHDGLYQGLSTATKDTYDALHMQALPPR
substance,measurement,setting,value
RiboMab02.1: Fab-(scFv)2-based bispecific antibody (tribody) against CLDN6 and CD3 encoded by BNT142; SEQ ID NOs: 4 and 6; C53S,target-independent lysis,MDA-MB-231 cell line,did not induce target-independent (non-specific) lysis
same,off-target T-cell activation,"human PBMCs (T cells); PBMCs without target cells, up to 40 ng/mL RiboMab02.1, 48 h",No off-target T-cell activation
same,concentration above EC50 up to which T-cell activation is target-dependent,human PBMCs (T cells); onset of unspecific T-cell activation relative to EC50,"> 1,500 fold"
same,binding to human CD3,human CD3,recognized
same,immunogenic potential (ADA response),[1],lower immunogenic potential

# Source: patent publication US20250009780A1, “AGENTS ENCODING CLDN6 AND CD3 BINDING ELEMENTS FOR TREATING CLDN6-POSITIVE CANCERS” (BIONTECH SE, priority 2021, published 2025)
